US20210045385A1, “PYRIDAZINONE-SUBSTITUTED KETOXIMES AS HERBICIDES” (FMC Corporation, priority 2018, published 2021)

What was measured:
Format in all cases: in vivo
[1] = system: Italian ryegrass (Lolium mutiflorum); assay: Test C preemergence, visual plant response rating; conditions: Test C, 0 is no effect, 100 is complete control
In short: (§1)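 Seeds sown in a loam–sand blend got a directed preemergence soil spray; postemergence plants (2–10 cm, one- to two-leaf stage) were sprayed with compound in a non-phytotoxic solvent plus surfactant. Injury was scored visually against untreated controls after about 10 d in a greenhouse on a 0–100 scale (100 = complete control).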

[2] = system: barnyardgrass (Echinochloa crus-galli); assay: Test C preemergence, visual plant response rating; conditions: Test C, 0 is no effect, 100 is complete control
In short: as §1

[3] = system: foxtail, giant (giant foxtail, Setaria faberi); assay: Test C preemergence, visual plant response rating; conditions: Test C, 0 is no effect, 100 is complete control
In short: as §1

kochia (Bassia scoparia) [4] = assay: Test C preemergence, visual plant response rating; conditions: Test C, 0 is no effect, 100 is complete control
In short: as §1

[5] = system: pigweed (Amaranthus retroflexus); assay: Test C preemergence, visual plant response rating; conditions: Test C, 0 is no effect, 100 is complete control
In short: as §1

[6] = system: ragweed (common ragweed, Ambrosia artemisiifolia); assay: Test C preemergence, visual plant response rating; conditions: Test C, 0 is no effect, 100 is complete control
In short: as §1

[7] = system: Italian ryegrass (Lolium mutiflorum); assay: Test C postemergence, visual plant response rating
In short: as §1

[8] = system: barnyardgrass (Echinochloa crus-galli); assay: Test C postemergence, visual plant response rating
In short: as §1

[9] = system: blackgrass (Alopecurus myosuroides); assay: Test C postemergence, visual plant response rating
In short: as §1

corn (Zea mays) = assay: Test C postemergence, visual plant response rating
In short: as §1

[10] = system: foxtail, giant (giant foxtail, Setaria faberi); assay: Test C postemergence, visual plant response rating
In short: as §1

[11] = system: galium (catchweed bedstraw, Galium aparine); assay: Test C postemergence, visual plant response rating
In short: as §1

kochia (Bassia scoparia) [12] = assay: Test C postemergence, visual plant response rating
In short: as §1

[13] = system: pigweed (Amaranthus retroflexus); assay: Test C postemergence, visual plant response rating
In short: as §1

[14] = system: ragweed (common ragweed, Ambrosia artemisiifolia); assay: Test C postemergence, visual plant response rating
In short: as §1

[15] = system: wheat (Triticum aestivum); assay: Test C postemergence, visual plant response rating
In short: as §1

[16] = system: barnyardgrass (Echinochloa crus-galli); assay: Test D flooded paddy test, visual plant response rating; conditions: 250 g ai/ha, scale 0 to 100 (0 no effect, 100 complete control), 13 to 15 d
In short: (§2)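 Greenhouse paddy assay scored on a 0–100 visual scale after 13 to 15 d, where 100 means complete control and a dash marks no result; dosing was into 3 cm floodwater over 2-leaf plants.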

[17] = system: duck salad (Heteranthera limosa); assay: as above; conditions: 250 g ai/ha, scale 0 to 100 (0 no effect, 100 complete control), 13 to 15 d
In short: as §2

rice (Oryza sativa) = assay: as above; conditions: 250 g ai/ha, scale 0 to 100 (0 no effect, 100 complete control), 13 to 15 d
In short: as §2

[18] = system: sedge umbrella (small-flower umbrella sedge, Cyperus difformis); assay: as above; conditions: 250 g ai/ha, scale 0 to 100 (0 no effect, 100 complete control), 13 to 15 d
In short: as §2

[19] = Test C, postemergence, 125 g ai/ha

| SMILES | Ryegrass, Italian plant response rating (0 to 100 scale) ([1]; 31 g ai/ha) | Ryegrass, Italian plant response rating (0 to 100 scale) ([1]; 125 g ai/ha) | Barnyardgrass plant response rating (0 to 100 scale) ([2]; 31 g ai/ha) | Barnyardgrass plant response rating (0 to 100 scale) ([2]; 125 g ai/ha) | Foxtail, Giant plant response rating (0 to 100 scale) ([3]; 31 g ai/ha) | Foxtail, Giant plant response rating (0 to 100 scale) ([3]; 125 g ai/ha) | Kochia plant response rating (0 to 100 scale) (kochia (Bassia scoparia) [4]; 31 g ai/ha) | Kochia plant response rating (0 to 100 scale) (kochia (Bassia scoparia) [4]; 125 g ai/ha) | Pigweed plant response rating (0 to 100 scale) ([5]; 31 g ai/ha) | Pigweed plant response rating (0 to 100 scale) ([5]; 125 g ai/ha) | Ragweed plant response rating (0 to 100 scale) ([6]; 31 g ai/ha) | Ragweed plant response rating (0 to 100 scale) ([6]; 125 g ai/ha) | Ryegrass, Italian plant response rating (0 to 100 scale) ([7]; Postemergence, 31 g ai/ha) | Ryegrass, Italian plant response rating (0 to 100 scale) [7, 19] | Barnyardgrass plant response rating (0 to 100 scale) ([8]; Postemergence, 31 g ai/ha) | Barnyardgrass plant response rating (0 to 100 scale) [8, 19] | Blackgrass plant response rating (0 to 100 scale) ([9]; Postemergence, 31 g ai/ha) | Blackgrass plant response rating (0 to 100 scale) [9, 19] | Corn plant response rating (0 to 100 scale) (corn (Zea mays); Postemergence, 31 g ai/ha) | Corn plant response rating (0 to 100 scale) (corn (Zea mays); [19]) | other results |
| --- | --- | --- | --- | --- | --- | --- | --- | --- | --- | --- | --- | --- | --- | --- | --- | --- | --- | --- | --- | --- | --- |
| C#CCON=C(c1cccc(OC)c1)c1c(O)c(C)nn(C)c1=O [Compound 203] | 0 | 0 | 0 | 0 | 0 | 10 | 0 | 0 | 0 | 0 | 0 | 0 | 30 | 30 | 0 | 20 | 0 | 0 | 0 | 0 | Foxtail, Giant plant response rating (0 to 100 scale) ([10]; Postemergence, 31 g ai/ha): 0; Foxtail, Giant plant response rating (0 to 100 scale) [10, 19]: 30; Galium plant response rating (0 to 100 scale) ([11]; Postemergence, 31 g ai/ha): 30; Galium plant response rating (0 to 100 scale) [11, 19]: 30; Kochia plant response rating (0 to 100 scale) (kochia (Bassia scoparia) [12]; Postemergence, 31 g ai/ha): 20; Kochia plant response rating (0 to 100 scale) (kochia (Bassia scoparia) [12]; [19]): 50; Pigweed plant response rating (0 to 100 scale) ([13]; Postemergence, 31 g ai/ha): 10; Pigweed plant response rating (0 to 100 scale) [13, 19]: 20; Ragweed plant response rating (0 to 100 scale) ([14]; Postemergence, 31 g ai/ha): 0; Ragweed plant response rating (0 to 100 scale) [14, 19]: 10; Wheat plant response rating (0 to 100 scale) ([15]; Postemergence, 31 g ai/ha): 0; Wheat plant response rating (0 to 100 scale) [15, 19]: 0; Plant response rating, Barnyardgrass (Flood) [16]: 0; Plant response rating, Ducksalad (Flood) [17]: 0; Plant response rating, Rice (Flood) (rice (Oryza sativa)): 0; Plant response rating, Sedge, Umbrella (Flood) [18]: 0 |
| CON=C(c1cccc(OC)c1)c1c(O)c(C)nn(C)c1=O [Compound 204] | 0 | 0 | 0 | 0 | 0 | 0 | 0 | 0 | 0 | 0 | 0 | 0 | 0 | 0 | 0 | 0 | 0 | 0 | 0 | 0 | Foxtail, Giant plant response rating (0 to 100 scale) ([10]; Postemergence, 31 g ai/ha): 0; Foxtail, Giant plant response rating (0 to 100 scale) [10, 19]: 0; Galium plant response rating (0 to 100 scale) ([11]; Postemergence, 31 g ai/ha): 10; Galium plant response rating (0 to 100 scale) [11, 19]: 40; Kochia plant response rating (0 to 100 scale) (kochia (Bassia scoparia) [12]; Postemergence, 31 g ai/ha): 0; Kochia plant response rating (0 to 100 scale) (kochia (Bassia scoparia) [12]; [19]): 10; Pigweed plant response rating (0 to 100 scale) ([13]; Postemergence, 31 g ai/ha): 0; Pigweed plant response rating (0 to 100 scale) [13, 19]: 10; Ragweed plant response rating (0 to 100 scale) ([14]; Postemergence, 31 g ai/ha): 0; Ragweed plant response rating (0 to 100 scale) [14, 19]: 0; Wheat plant response rating (0 to 100 scale) ([15]; Postemergence, 31 g ai/ha): 0; Wheat plant response rating (0 to 100 scale) [15, 19]: 0; Plant response rating, Barnyardgrass (Flood) [16]: 0; Plant response rating, Ducksalad (Flood) [17]: 0; Plant response rating, Rice (Flood) (rice (Oryza sativa)): 0; Plant response rating, Sedge, Umbrella (Flood) [18]: 0 |
| CO/N=C(\c1c(O)c(Cl)nn(C)c1=O)c1ccc(F)c2ccccc12 [Compound 208] | 10 | 70 | 0 | 80 | 50 | 90 | 0 | 20 | 40 | 100 | 60 | 100 | 30 | 80 | 30 | 60 | 0 | 30 | 0 | 10 | Foxtail, Giant plant response rating (0 to 100 scale) ([10]; Postemergence, 31 g ai/ha): 20; Foxtail, Giant plant response rating (0 to 100 scale) [10, 19]: 60; Galium plant response rating (0 to 100 scale) ([11]; Postemergence, 31 g ai/ha): 90; Galium plant response rating (0 to 100 scale) [11, 19]: 100; Kochia plant response rating (0 to 100 scale) (kochia (Bassia scoparia) [12]; Postemergence, 31 g ai/ha): 50; Kochia plant response rating (0 to 100 scale) (kochia (Bassia scoparia) [12]; [19]): 70; Pigweed plant response rating (0 to 100 scale) ([13]; Postemergence, 31 g ai/ha): 30; Pigweed plant response rating (0 to 100 scale) [13, 19]: 40; Ragweed plant response rating (0 to 100 scale) ([14]; Postemergence, 31 g ai/ha): 100; Ragweed plant response rating (0 to 100 scale) [14, 19]: 100; Wheat plant response rating (0 to 100 scale) ([15]; Postemergence, 31 g ai/ha): 0; Wheat plant response rating (0 to 100 scale) [15, 19]: 0; Plant response rating, Barnyardgrass (Flood) [16]: 0; Plant response rating, Ducksalad (Flood) [17]: 0; Plant response rating, Rice (Flood) (rice (Oryza sativa)): 0; Plant response rating, Sedge, Umbrella (Flood) [18]: 0 |
| CC(C)O/N=C(/c1c(O)c(Cl)nn(C)c1=O)c1ccc(F)c2ccccc12 [Compound 209] | 10 | 30 | 50 | 80 | 80 | 100 | 0 | 40 | 20 | 100 | 90 | 90 | 10 | 40 | 50 | 80 | 10 | 30 | 10 | 20 | Foxtail, Giant plant response rating (0 to 100 scale) ([10]; Postemergence, 31 g ai/ha): 70; Foxtail, Giant plant response rating (0 to 100 scale) [10, 19]: 90; Galium plant response rating (0 to 100 scale) ([11]; Postemergence, 31 g ai/ha): 90; Galium plant response rating (0 to 100 scale) [11, 19]: 100; Kochia plant response rating (0 to 100 scale) (kochia (Bassia scoparia) [12]; Postemergence, 31 g ai/ha): 10; Kochia plant response rating (0 to 100 scale) (kochia (Bassia scoparia) [12]; [19]): 40; Pigweed plant response rating (0 to 100 scale) ([13]; Postemergence, 31 g ai/ha): 50; Pigweed plant response rating (0 to 100 scale) [13, 19]: 90; Ragweed plant response rating (0 to 100 scale) ([14]; Postemergence, 31 g ai/ha): 90; Ragweed plant response rating (0 to 100 scale) [14, 19]: 90; Wheat plant response rating (0 to 100 scale) ([15]; Postemergence, 31 g ai/ha): 0; Wheat plant response rating (0 to 100 scale) [15, 19]: 0; Plant response rating, Barnyardgrass (Flood) [16]: 0; Plant response rating, Ducksalad (Flood) [17]: 50; Plant response rating, Rice (Flood) (rice (Oryza sativa)): 0; Plant response rating, Sedge, Umbrella (Flood) [18]: 80 |
